Results: US20030118627A1 (DABUR RESEARCH FOUNDATION, priority 2001, published 2003)

What was measured:
MOLT 4 = assay: MTT cytotoxicity assay, MOLT 4 leukemia; assay type: cell-based; conditions: Homo sapiens; for IC50: 24 h, Molt 4 Leukemia, read-out: ED50 values of cytotoxicity; for cytotoxicity at 1000 µM / cytotoxicity at 2500 µM / cytotoxicity at 4000 µM / cytotoxicity at 5000 µM / cytotoxicity at 10000 µM: MOLT 4 Leukemia, read-out: Percent cytotoxicity; for cytotoxicity at 1000 µM: 1.0 mM; for cytotoxicity at 2500 µM: 2.5 mM; for cytotoxicity at 4000 µM: 4 mM; for cytotoxicity at 5000 µM: 5 mM; for cytotoxicity at 10000 µM: 10 mM
Method: (§1) Briefly, a […] MTT cytotoxicity assay was performed, which is based on the principle of uptake of MTT (3-(4,5-dimethylthiazol-2-yl)-2,5-diphenyl tetrazolium bromide), a tetrazolium salt, by the metabolically active cells where it is metabolized by active mitochondria into a blue colored formazan product that is read spectrophoto-metrically. MTT was dissolved in phosphate buffered saline with a pH of 7.4 to obtain an MTT concentration of 5 mg/ml; the resulting mixture was filtered through a 0.22 micron filter to sterilize and remove a small amount of insoluble residue. For each type of tumor cell, 20,000 to 50,000 cells were seeded in a 96-well culture plate and incubated with the combination in a CO2 incubator for 24 hours. […] The assay was terminated after 24 hours by adding 100 ug (20 ul) of MTT to each well, then incubating for additional one hour, and finally adding 50 ul of 10% SDS-0.01N HCl to each well to lyse the cells and dissolve formazan. After incubating for one hour, the plate was read spectrophotometrically at 540 nm and the percentage cytotoxicity calculated.

PA 1 = assay: MTT cytotoxicity assay, PA 1 ovary; assay type: cell-based; conditions: Homo sapiens; for IC50: 24 h, PA 1 Ovarian, read-out: ED50 values of cytotoxicity; for cytotoxicity at 1000 µM / cytotoxicity at 2500 µM / cytotoxicity at 4000 µM / cytotoxicity at 5000 µM / cytotoxicity at 10000 µM: PA 1 Ovary, read-out: Percent cytotoxicity; for cytotoxicity at 1000 µM: 1.0 mM; for cytotoxicity at 2500 µM: 2.5 mM; for cytotoxicity at 4000 µM: 4 mM; for cytotoxicity at 5000 µM: 5 mM; for cytotoxicity at 10000 µM: 10 mM
Method: as §1

PTC = assay: MTT cytotoxicity assay, PTC colon; assay type: cell-based; conditions: Homo sapiens; for cytotoxicity at 1000 µM: 1.0 mM; for cytotoxicity at 1000 µM / cytotoxicity at 2500 µM / cytotoxicity at 4000 µM / cytotoxicity at 5000 µM / cytotoxicity at 10000 µM: read-out: Percent cytotoxicity; for cytotoxicity at 2500 µM: 2.5 mM; for cytotoxicity at 4000 µM: 4 mM; for cytotoxicity at 5000 µM: 5 mM; for cytotoxicity at 10000 µM: 10 mM; for IC50: 24 h, read-out: ED50 values of cytotoxicity
Method: as §1

Miapaca2 = assay: MTT cytotoxicity assay, Miapaca2 pancreas; assay type: cell-based; conditions: Homo sapiens; for cytotoxicity at 1000 µM: MIA PaCa-2, 1.0 mM; for cytotoxicity at 1000 µM / cytotoxicity at 2500 µM / cytotoxicity at 4000 µM / cytotoxicity at 5000 µM / cytotoxicity at 10000 µM: read-out: Percent cytotoxicity; for cytotoxicity at 2500 µM: MIA PaCa-2, 2.5 mM; for cytotoxicity at 4000 µM: MIA PaCa-2, 4 mM; for cytotoxicity at 5000 µM: MIA PaCa-2, 5 mM; for cytotoxicity at 10000 µM: MIA PaCa-2, 10 mM; for IC50: MIA PaCa-2, 24 h, read-out: ED50 values of cytotoxicity
Method: as §1

DU145 = assay: MTT cytotoxicity assay, DU145 prostate; assay type: cell-based; conditions: Homo sapiens; for cytotoxicity at 1000 µM: DU-145, 1.0 mM; for cytotoxicity at 1000 µM / cytotoxicity at 2500 µM / cytotoxicity at 4000 µM / cytotoxicity at 5000 µM / cytotoxicity at 10000 µM: read-out: Percent cytotoxicity; for cytotoxicity at 2500 µM: DU-145, 2.5 mM; for cytotoxicity at 4000 µM: DU-145, 4 mM; for cytotoxicity at 5000 µM: DU-145, 5 mM; for cytotoxicity at 10000 µM: DU-145, 10 mM; for IC50: DU-145, 24 h, read-out: ED50 values of cytotoxicity
Method: as §1

L132 = assay: MTT cytotoxicity assay, L132 lung; assay type: cell-based; conditions: Homo sapiens; for cytotoxicity at 1000 µM: 1.0 mM; for cytotoxicity at 1000 µM / cytotoxicity at 2500 µM / cytotoxicity at 4000 µM / cytotoxicity at 5000 µM / cytotoxicity at 10000 µM: read-out: Percent cytotoxicity; for cytotoxicity at 2500 µM: 2.5 mM; for cytotoxicity at 4000 µM: 4 mM; for cytotoxicity at 5000 µM: 5 mM; for cytotoxicity at 10000 µM: 10 mM; for IC50: 24 h, read-out: ED50 values of cytotoxicity
Method: as §1

MCF7 = assay: MTT cytotoxicity assay, MCF7 breast; assay type: cell-based; conditions: Homo sapiens; for IC50: MCF7, 24 h, MCF 7 Breast, read-out: ED50 values of cytotoxicity; for cytotoxicity at 1000 µM / cytotoxicity at 2500 µM / cytotoxicity at 4000 µM / cytotoxicity at 5000 µM / cytotoxicity at 10000 µM: MCF7 breast, read-out: Percent cytotoxicity; for cytotoxicity at 1000 µM: 1.0 mM; for cytotoxicity at 2500 µM: 2.5 mM; for cytotoxicity at 4000 µM: 4 mM; for cytotoxicity at 5000 µM: 5 mM; for cytotoxicity at 10000 µM: 10 mM
Method: as §1

U87MG = assay: MTT cytotoxicity assay, U87MG glioblastoma; assay type: cell-based; conditions: Homo sapiens, U-87 MG, 24 h, read-out: ED50 values of cytotoxicity
Method: as §1

KB = assay: MTT cytotoxicity assay, KB oral; assay type: cell-based; conditions: Homo sapiens, 24 h, read-out: ED50 values of cytotoxicity
Method: as §1

Hep2 = assay: MTT cytotoxicity assay, Hep2 larynx; assay type: cell-based; conditions: Homo sapiens, HEp-2, 24 h, read-out: ED50 values of cytotoxicity
Method: as §1

293 = assay: MTT cytotoxicity assay, 293 kidney; assay type: cell-based; conditions: Homo sapiens, HEK293, 24 h, read-out: ED50 values of cytotoxicity
Method: as §1

INT 407 = assay: MTT cytotoxicity assay, INT 407 intestine; assay type: cell-based; conditions: Homo sapiens, 24 h, read-out: ED50 values of cytotoxicity
Method: as §1

Swiss albino mice = conditions: both, mouse, in vivo, po, 15 days
Method: Acute toxicity studies were performed using the oral route of administration.
A batch of 5 female and 5 male mice each was administered the test substance by oral route. […] Another batch of 5 female and 5 male served as control.
Observations were made three times on the day of dosing and twice daily thereafter for the remainder of 14 days or until reversible toxic signs or symptoms subsided. All gross visible toxic signs and symptoms were recorded. Body weights were recorded prior to dosing and weekly thereafter.

COC(=O)C1CCC(=O)N1C(OC(C)=O)C(C)=O (stereo not drawn) [MGC-4, N-(1-acetoxy-2-ketopropyl)-methylpyroglutamate]
IC50 (MOLT 4): 1500 ± 200 µM | cytotoxicity at 1000 µM (MOLT 4): 36.9 ± 3.9% | cytotoxicity at 2500 µM (MOLT 4): 57.9 ± 3.1% | cytotoxicity at 4000 µM (MOLT 4): 78.9 ± 4.9% | cytotoxicity at 5000 µM (MOLT 4): 88.4 ± 7.5% | cytotoxicity at 10000 µM (MOLT 4): 85.9 ± 7.3% | IC50 (PA 1): 1600 ± 200 µM | cytotoxicity at 1000 µM (PA 1): 28.9 ± 3.2% | cytotoxicity at 2500 µM (PA 1): 67.9 ± 4.9% | cytotoxicity at 4000 µM (PA 1): 87.9 ± 6.4% | cytotoxicity at 5000 µM (PA 1): 88.6 ± 6.9% | cytotoxicity at 10000 µM (PA 1): 88 ± 6.9% | cytotoxicity at 1000 µM (PTC): 23.9 ± 3% | cytotoxicity at 2500 µM (PTC): 39 ± 5.2% | cytotoxicity at 4000 µM (PTC): 56.9 ± 5.9% | cytotoxicity at 5000 µM (PTC): 84.2 ± 7.4% | cytotoxicity at 10000 µM (PTC): 87.3 ± 6% | IC50 (PTC): 3800 ± 1100 µM | cytotoxicity at 1000 µM (Miapaca2): 0% | cytotoxicity at 2500 µM (Miapaca2): 3.9 ± 0.5% | cytotoxicity at 4000 µM (Miapaca2): 46.8 ± 4.9% | cytotoxicity at 5000 µM (Miapaca2): 57.9 ± 5.9% | cytotoxicity at 10000 µM (Miapaca2): 79.4 ± 4.8% | IC50 (Miapaca2): 4200 ± 1100 µM | cytotoxicity at 1000 µM (DU145): 28.9 ± 4.2% | cytotoxicity at 2500 µM (DU145): 58.9 ± 4.9% | cytotoxicity at 4000 µM (DU145): 82.1 ± 7.3% | cytotoxicity at 5000 µM (DU145): 85.6 ± 7.3% | cytotoxicity at 10000 µM (DU145): 87.9 ± 7.3% | IC50 (DU145): 1800 ± 300 µM | cytotoxicity at 1000 µM (L132): 0% | cytotoxicity at 2500 µM (L132): 0% | cytotoxicity at 4000 µM (L132): 0% | cytotoxicity at 5000 µM (L132): 4.9 ± 0.6% | cytotoxicity at 10000 µM (L132): 37.9 ± 3.5% | IC50 (L132): > 5000 µM | IC50 (MCF7): > 5000 µM | cytotoxicity at 1000 µM (MCF7): 0% | cytotoxicity at 2500 µM (MCF7): 0% | cytotoxicity at 4000 µM (MCF7): 3.8 ± 0.4% | cytotoxicity at 5000 µM (MCF7): 23.8 ± 0.8% | cytotoxicity at 10000 µM (MCF7): 31.9 ± 2.9% | IC50 (U87MG): 2400 ± 500 µM | IC50 (KB): 1550 ± 300 µM | IC50 (Hep2): 3200 ± 800 µM | IC50 293: 1400 ± 100 µM | IC50 (INT 407): 2300 ± 1100 µM | safe dose (Swiss albino mice): 100 mg

CCOC(=O)C1CCC(=O)N1C(O)C(C)=O (stereo not drawn) [MGC-7, N-(1-hydroxy-2-ketopropyl)-ethylpyroglutamate]
IC50 (MOLT 4): 1500 ± 200 µM | cytotoxicity at 1000 µM (MOLT 4): 39.4 ± 2.7% | cytotoxicity at 2500 µM (MOLT 4): 58.5 ± 3.8% | cytotoxicity at 4000 µM (MOLT 4): 59.1 ± 4.3% | cytotoxicity at 5000 µM (MOLT 4): 64.3 ± 4.9% | cytotoxicity at 10000 µM (MOLT 4): 73.4 ± 2% | IC50 (PA 1): 1200 ± 200 µM | cytotoxicity at 1000 µM (PA 1): 45.6 ± 1.9% | cytotoxicity at 2500 µM (PA 1): 58.4 ± 4.7% | cytotoxicity at 4000 µM (PA 1): 65.5 ± 3.9% | cytotoxicity at 5000 µM (PA 1): 79.9 ± 5.2% | cytotoxicity at 10000 µM (PA 1): 84.9 ± 5.4% | cytotoxicity at 1000 µM (PTC): 34.3 ± 1.9% | cytotoxicity at 2500 µM (PTC): 54.3 ± 4.9% | cytotoxicity at 4000 µM (PTC): 65.9 ± 4.8% | cytotoxicity at 5000 µM (PTC): 78.2 ± 3.9% | cytotoxicity at 10000 µM (PTC): 82.2 ± 6.1% | IC50 (PTC): 2400 ± 500 µM | cytotoxicity at 1000 µM (Miapaca2): 0% | cytotoxicity at 2500 µM (Miapaca2): 28 ± 1.5% | cytotoxicity at 4000 µM (Miapaca2): 89 ± 2.3% | cytotoxicity at 5000 µM (Miapaca2): 88 ± 4.1% | cytotoxicity at 10000 µM (Miapaca2): 85 ± 4.1% | IC50 (Miapaca2): 2400 ± 1000 µM | cytotoxicity at 1000 µM (DU145): 56 ± 5.9% | cytotoxicity at 2500 µM (DU145): 65 ± 2.9% | cytotoxicity at 4000 µM (DU145): 78.4 ± 6.9% | cytotoxicity at 5000 µM (DU145): 83 ± 4.9% | cytotoxicity at 10000 µM (DU145): 89 ± 6.1% | IC50 (DU145): 850 ± 300 µM | cytotoxicity at 1000 µM (L132): 0% | cytotoxicity at 2500 µM (L132): 0% | cytotoxicity at 4000 µM (L132): 0% | cytotoxicity at 5000 µM (L132): 0% | cytotoxicity at 10000 µM (L132): 0% | IC50 (L132): > 5000 µM | IC50 (MCF7): 2800 ± 1100 µM | cytotoxicity at 1000 µM (MCF7): 7 ± 1.3% | cytotoxicity at 2500 µM (MCF7): 10 ± 2.5% | cytotoxicity at 4000 µM (MCF7): 69 ± 3.2% | cytotoxicity at 5000 µM (MCF7): 85 ± 4.5% | cytotoxicity at 10000 µM (MCF7): 83 ± 4.5% | IC50 (U87MG): 1840 ± 600 µM | IC50 (KB): 1850 ± 600 µM | IC50 (Hep2): 2500 ± 1100 µM | IC50 293: 3100 ± 1300 µM | IC50 (INT 407): 2700 ± 1200 µM | safe dose (Swiss albino mice): 100 mg
